These results are taken from patent US20060234916A1, “Cardioprotective agent” (Mizuo Miyazaki, priority 2003, published 2006).

A short description of data set [1]: Stability (half-life) in human blood plasma. It is filed as in vitro ADME. The procedure: The agent of the present invention may contain the peptide derivative of an aryl diester of alpha-aminoalkylphosphonic acids. […] These derivatives are contained in human blood plasma, and remarkably stable under a variety of circumstances. For example, the preferred inhibitor Suc-Val-Pro-Phe^P(OPh)2, particularly preferably, Suc-Val-Pro-L-Phe^P(OPh)2 contained in the agent of the present invention, has a half-life of about 20 hours in human blood plasma. This stability is important, because it is predicted that a peritoneal exudate neutralizes most of protease inhibitors to damage their activity. Aminoalkylphosphonic acids are analogous of alpha-amino acids, and designated by the generally acceptable three-letter abbreviation for an amino acid followed by the superscript P. For example, diphenyl alpha-(N-benzyloxycarbonylamino)ethylphosphonate which is related to alanine is abbreviated Cbz-Ala^P(OPh)2.

Another data set deals with T1, chymase (Homo sapiens, UniProt P23946).
T1 construct: the chymase activity in the blood vessel tissue of the living body; from tissue; host or cells: blood vessel tissue of the living body
T1 sequence (P23946 22-247): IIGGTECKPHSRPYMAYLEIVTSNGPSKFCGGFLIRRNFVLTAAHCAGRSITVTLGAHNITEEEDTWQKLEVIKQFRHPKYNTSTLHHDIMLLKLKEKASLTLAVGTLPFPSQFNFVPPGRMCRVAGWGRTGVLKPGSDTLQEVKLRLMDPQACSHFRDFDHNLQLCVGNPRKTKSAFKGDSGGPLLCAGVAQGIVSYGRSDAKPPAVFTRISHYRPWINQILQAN
Description: Suppression of chymase activity in blood vessel tissue of the living body after use during operation. It is filed as in vivo. The following applies: used at 10 μM during the operation; effect for 4 weeks. As to the method: The agent of the present invention allows at least one protease inhibitor to be administered in a substantially sufficient amount so that the inhibitor may exist by an effective concentration in the site of heart to protect. […] The effective administration amount of chymase inhibitor (Suc-Val-Pro-L-Phe^P(Oph)2) can be selected in the range from 0.0001 to 100 mg per 1 kg of adult body weight, per one day. For example, it is administered intravenously by an amount selected in the range from 0.001 to 100 mg, preferably from 0.01 to 1 mg, and orally by an amount selected in the range from 0.1 to 100 mg, preferably from 0.1 to 10 mg.

Data set [2] deals with Syrian hamsters myocardial infarction model. Description: Survival rate after myocardial infarction (left coronary artery ligation) with oral administration. Type of data set: in vivo. The settings on record: placebo 39.1%. As to the method:
The left coronary artery was ligated in Syrian hamsters (SLC, Co., Ltd., Shizuoka, Japan), 6 weeks of age, weighing 85 to 90 g, to prepare a myocardial infarction model (Jpn. J. Pharmacol., 86, p. 203-214 2001 life Sci. 71 p. 437-446 2002). […] It should be noted that the significant test was performed by log rank test using the survival curve.

Regarding Suc-Val-Pro-Phe^P(OPh)2, the “half-life in human blood plasma” value in data set [1] is reported as “about 20 hours”.

With `CC(C)C(NC(=O)CCC(=O)O)C(=O)N1CCCC1C(=O)NC(Cc1ccccc1)P(=O)(Oc1ccccc1)Oc1ccccc1` [Suc-Val-Pro-L-Phe^P(OPh)2], in data set [1], the “half-life in human blood plasma” value is listed as “about 20 hours”. In addition, on chymase, the “chymase activity in the blood vessel tissue of the living body” value is recorded as “suppress significantly”. Besides, the “survival rate up to the 14th day” value is listed as 88.9% in data set [2] (10 mg/kg orally once a day, administered from the day before the operation, log rank test significant, FIG. 1) and 88.9% in data set [2] (10 mg/kg orally, administered from the day after the operation, significant, FIG. 2).
